Data taken from publication PMC3021963 (ChemMedChem, 2010).

Legend:
Type in all cases: biochemical
[1] = biological target: T1, MbtI (Mycobacterium tuberculosis, UniProt P9WFX1); experiment: continuous fluorescence assay of MbtI; conditions: for Fluorescence Assay Hill: Table 1, Hill slope of concentration-response plot
[2] = biological target: T1, MbtI
[3] = biological target: T1, MbtI; experiment: HPLC end-point assay of MbtI; conditions: for HPLC Assay Hill: Table 1, Hill slope of concentration-response plot
[4] = IC50, Table 2, class II diarylsulfones
[5] = Table 3, class III benzimidazole-2-thiones
[6] = Table 3, class III benzimidazole-2-thiones, synthetically prepared compounds
[7] = Table 2, class II diarylsulfones

T1 sequence (P9WFX1 whole entry, looked up): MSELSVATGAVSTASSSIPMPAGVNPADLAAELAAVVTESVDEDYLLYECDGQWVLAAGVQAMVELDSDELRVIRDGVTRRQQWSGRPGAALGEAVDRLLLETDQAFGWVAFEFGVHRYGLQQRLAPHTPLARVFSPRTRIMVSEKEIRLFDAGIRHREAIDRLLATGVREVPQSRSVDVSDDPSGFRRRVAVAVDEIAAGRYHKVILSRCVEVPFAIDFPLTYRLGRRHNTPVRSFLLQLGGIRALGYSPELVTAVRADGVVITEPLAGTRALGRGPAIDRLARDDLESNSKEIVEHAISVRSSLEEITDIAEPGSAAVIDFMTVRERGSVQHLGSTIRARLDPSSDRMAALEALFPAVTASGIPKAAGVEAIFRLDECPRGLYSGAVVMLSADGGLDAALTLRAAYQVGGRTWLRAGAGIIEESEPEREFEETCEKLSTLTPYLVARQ

CC(=O)NS(=O)(=O)c1cccc(S(=O)(=O)c2ccc(Cl)c(Cl)c2)c1 [Compound 32, N-[3-(3,4-Dichlorophenylsulfonyl)phenylsulfonyl]acetamide]
MbtI inhibition (in words) [1]: completely inactive | IC50 [1, 4]: > 200 µM

Cn1c(=S)[nH]c2ccccc21 [Compound 40, N-methylbenzimidazole-2-thione]
change in potency relative to parent compound 4 [1]: six- to nine-fold decreases in potency | Hill Slope [1, 5]: 1.20

CC(=O)n1c(=S)[nH]c2ccccc21 [Compound 4, 1-Acetylbenzimidazole-2-thione]
Ki [2]: 9.7 µM | α value ([2]; noncompetitive inhibition model): 1 | mode of inhibition ([2]; with respect to chorismate): noncompetitive inhibition | IC50 [3]: 5.16 ± 0.49 µM | HPLC Assay Hill [3]: 1.23 | Fluorescence Assay Hill [1]: 1.71 | Hill Slope [1, 5]: 1.00

CC(=O)n1cnc2ccccc21 [Compound 44, 1-Acetylbenzimidazole]
MbtI inhibition (in words) [1]: completely inactive

CC(=O)n1c(=S)oc2ccccc21 [Compound 42, 1-Acetylbenzoxazole-2-thione]
change in potency relative to parent compound 4 [1]: about twofold less potent | Hill Slope [1, 5]: 1.10 | IC50 [1, 6]: 21.8 ± 1.4 µM

CNS(=O)(=O)c1cccc(S(=O)(=O)c2ccc(Cl)c(Cl)c2)c1 [Compound 29, 3-(3,4-Dichlorophenylsulfonyl)-N-methylbenzenesulfonamide]
IC50 [1, 4]: > 200 µM

O=S(=O)(c1cccc(S(=O)(=O)N2CCOCC2)c1)c1ccc(Cl)c(Cl)c1 [Compound 31, N-[3-(3,4-Dichlorophenylsulfonyl)phenylsulfonyl]morpholine]
IC50 [1, 7]: > 200 µM

NS(=O)(=O)c1cccc(S(=O)(=O)c2ccc(Cl)cc2)c1 [Compound 26, 3-(4-Chlorophenylsulfonyl)benzenesulfonamide]
MbtI inhibition (in words) [1]: complete loss of activity | IC50 [1, 4]: > 200 µM

CC(=O)n1c(=O)[nH]c2ccccc21 [Compound 45, 1-Acetylbenzimidazole-2-one]
MbtI inhibition (in words) [1]: completely inactive

NS(=O)(=O)c1cccc(S(=O)(=O)c2ccc(Cl)c(Cl)c2)c1 [Compound 8, 3-(3,4-Dichlorophenylsulfonyl)benzenesulfonamide]
IC50 [3]: 49.2 ± 11.6 µM | HPLC Assay Hill [3]: 0.7 | IC50 [1, 4]: 35 µM | Fluorescence Assay Hill [1]: 0.85 | Hill Slope [1, 7]: 0.85

NS(=O)(=O)c1cccc(S(=O)(=O)c2ccccc2)c1 [Compound 27, 3-(Phenylsulfonyl)benzenesulfonamide]
MbtI inhibition (in words) [1]: complete loss of activity | IC50 [1, 4]: > 200 µM

CNS(=O)(=O)c1cccc(S(=O)(=O)c2ccccc2)c1 [Compound 28, N-Methyl-3-(phenylsulfonyl)benzenesulfonamide]
IC50 [1, 4]: > 200 µM

Nc1ccc(S(=O)(=O)c2ccc(N)cc2)cc1 [Compound 33, 4,4′-diaminodiphenylsulfone, reference compound]
IC50 [1, 4]: 118 ± 19 µM

S=c1[nH]c2ccccc2[nH]1 [Compound 34, benzimidazole-2-thione]
change in potency relative to parent compound 4 [1]: six- to nine-fold decreases in potency | Hill Slope [1, 5]: 0.90

CC(=O)n1c(=S)[nH]c2cc(C)ccc21 [Compound 41, 1-Acetyl-5/6-methylbenzimidazole-2-thione]
change in potency relative to parent compound 4 [1]: no impact on potency was observed | Hill Slope [1, 5]: 1.20 | IC50 [1, 6]: 7.6 ± 0.4 µM

CC(=O)N1C(=O)Cc2ccccc21 [Compound 43, 1-Acetyl-2-oxindole]
MbtI inhibition (in words) [1]: completely inactive

CC(=O)n1cc[nH]c1=S [Compound 47, 1-Acetylimidazole-2-thione]
MbtI inhibition (in words) [1]: abolished all activity

O=S(=O)(NCc1ccccc1)c1cccc(S(=O)(=O)c2ccc(Cl)c(Cl)c2)c1 [Compound 30, N-Benzyl-3-(3,4-dichlorophenylsulfonyl)benzenesulfonamide]
IC50 [1, 4]: > 200 µM

CSc1nc2ccccc2[nH]1 [Compound 46, 2-thiomethylbenzimidazole]
MbtI inhibition (in words) [1]: completely inactive | IC50 [1, 6]: > 200 µM
